Results: patent US11912694B1, “2-(benzo[d]oxazol-2-yl)-N′-(2-(5-(4-chlorophenyl)-1,3,4-oxadiazol-2-ylthio)acetoxy)acetimidamide as an antimicrobial compound” (KING FAISAL UNIVERSITY, priority 2023, dated 2024)

How the values were obtained:
[1] = tested on: Chrysosporium keratinophilum; assay: Agar plate disc-diffusion, antifungal, Chrysosporium keratinophilum; type: cell-based; conditions: Sabouraud's dextrose agar, 37° C., 72 hours
Protocol: (§1) The agar plate disc-diffusion method was applied. Sterilized filter papers (6 mm in diameter) were wetted with 10 μL of a solution of 2-(benzo[d]oxazol-2-yl)-N′-(2-(5-(4-chlorophenyl)-1,3,4-oxadiazol-2-ylthio)acetoxy)acetimidamide (3) to be tested, […], and the discs were allowed to air dry. The discs were then placed onto the surface of agar plates (nutrient agar for bacteria and Sabouraud's dextrose agar for fungi) seeded with the test organism. Each plate contained 15 mL of the agar medium, previously seeded with 0.2 mL of the broth culture of each organism pregrown for 18 hours. The plates were incubated at 37° C. for 48 hours and 72 hours for fungi. The inhibition zones were measured in mm. Discs impregnated with DMSO were used as a control, and their inhibition zone was subtracted from the tested compound's actual inhibition zone.

[2] = tested on: Escherichia coli; assay: Agar plate disc-diffusion, antibacterial, Escherichia coli; type: cell-based; conditions: nutrient agar, 37° C., 48 hours
Protocol: as §1

[3] = tested on: Aspergillus flavus; assay: Agar plate disc-diffusion, antifungal, Aspergillus flavus; type: cell-based; conditions: Sabouraud's dextrose agar, 37° C., 72 hours
Protocol: as §1

[4] = tested on: Pseudomonas aeruginosa; assay: Agar plate disc-diffusion, antibacterial, Pseudomonas aeruginosa; type: cell-based; conditions: nutrient agar, 37° C., 48 hours
Protocol: as §1

[5] = tested on: Staphylococcus aureus; assay: Agar plate disc-diffusion, antibacterial, Staphylococcus aureus; type: cell-based; conditions: nutrient agar, 37° C., 48 hours
Protocol: as §1

[6] = tested on: Bacillus cereus; assay: Agar plate disc-diffusion, antibacterial, Bacillus cereus; type: cell-based; conditions: nutrient agar, 37° C., 48 hours
Protocol: as §1

[7] = A = concentration of comp. = 10 mg/mL
[8] = B = concentration of comp. = 30,000 μL
[9] = C = concentration of comp. = 50,000 μL
[10] = A = concentration of comp. = 10,000 μg/mL
[11] = A = concentration of comp. = 10,000 μL

Row | SMILES | melting point [°C] | inhibition zone [1, 7] [mm] | inhibition zone [1, 8] [mm] | inhibition zone [1, 9] [mm] | inhibition zone [2, 10] [mm] | inhibition zone [2, 8] [mm] | inhibition zone [2, 9] [mm] | inhibition zone [3, 11] [mm] | inhibition zone [3, 8] [mm] | inhibition zone [3, 9] [mm] | inhibition zone [4, 10] [mm] | inhibition zone [4, 8] [mm] | inhibition zone [4, 9] [mm] | inhibition zone [5, 11] [mm] | inhibition zone [5, 8] [mm] | inhibition zone [5, 9] [mm] | inhibition zone [6, 11] [mm] | inhibition zone [6, 8] [mm] | inhibition zone [6, 9] [mm]
1 | N/C(Cc1nc2ccccc2o1)=N\OC(=O)CSc1nnc(-c2ccc(Cl)cc2)o1 [Compound 3, 2-(benzo[d]oxazol-2-yl)-N′-(2-(5-(4-chlorophenyl)-1,3,4-oxadiazol-2-ylthio)acetoxy)acetimidamide] | 162 to 163 | 28 | 35 | 47 | 28 | 37 | 49 | 25 | 30 | 41 | 24 | 29 | 36 | 27 | 35 | 42 | 27 | 30 | 41
2 | O=C(O)c1cn(C2CC2)c2cc(N3CCNCC3)c(F)cc2c1=O [Cip., ciprofloxacin, reference compound] | – | 29 | 30 | 53 | 30 | 39 | 60 | 29 | 30 | 42 | 29 | 30 | 53 | 43 | 44 | 53 | 29 | 30 | 42
